The source of these data is patent publication US7964624B1, “Inhibitors of serine proteases” (priority 2005, dated 2011).

Each structure is given as a SMILES string.

The test deals with T1, HCV NS3 protease domain (Hepatitis C virus genotype 1b, UniProt Q9WMX2).
T1 construct: The first 181 amino acids of NS3 (residues 1027-1207 of the viral polyprotein); hexa-histidine (C); made in house; host or cells: E. coli BL21/DE3 pLysS
T1 sequence (Q9WMX2 1027-1207, other chains not shown): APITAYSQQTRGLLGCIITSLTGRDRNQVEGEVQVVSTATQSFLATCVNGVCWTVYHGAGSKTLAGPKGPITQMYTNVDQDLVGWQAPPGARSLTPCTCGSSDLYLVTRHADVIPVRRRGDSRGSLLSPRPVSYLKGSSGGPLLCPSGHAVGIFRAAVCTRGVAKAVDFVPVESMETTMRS
Briefly: biochemical. The following applies: Enzyme Assay 1 (HCV NS3 Protease Domain Peptide Cleavage Assay) activity, apparent Ki class.
For the compound `CCC[C@H](NC(=O)[C@@H]1C[C@]2(CC(c3cccc(Cl)c3)=NO2)CN1C(=O)[C@@H](NC(=O)[C@H]1CC[C@H](OC)CC1)C(C)(C)C)C(=O)C(=O)NC1CC1` [Compound 503], the Ki is 0.1 to 0.5 µM.
As for `CCC[C@H](NC(=O)[C@@H]1C[C@]2(CC(c3cc(F)cc(F)c3)=NO2)CN1C(=O)[C@@H](NC(=O)O[C@H]1CCOC1)C(C)(C)C)C(=O)C(=O)NC1CC1` [Compound 106], the figure is > 0.5 µM.
As to `CCC[C@H](NC(=O)[C@@H]1C[C@]2(CC(c3cccc(Cl)c3)=NO2)CN1C(=O)[C@@H](NC(=O)NC(C)C)C(C)(C)C)C(=O)C(=O)NC1CC1` [Compound 379], the Ki is < 0.1 µM.
As for `CCC[C@H](NC(=O)[C@@H]1C[C@]2(CC(c3cccc(Cl)c3)=NO2)CN1C(=O)[C@@H](NC(=O)OCc1ccccn1)C(C)(C)C)C(=O)C(=O)NC1CC1` [Compound 378], the Ki was in the range of 0.1 to 0.5 µM.
For `CCC[C@H](NC(=O)[C@@H]1C[C@@]2(CC(c3cc(F)c(F)c(F)c3)=NO2)CN1C(=O)[C@@H](NC(=O)O[C@H]1CCOC1)C(C)(C)C)C(=O)C(=O)NC1CC1` [Compound 455], the Ki was > 0.5 µM.
Consider `CCC[C@H](NC(=O)[C@@H]1C[C@]2(CC(c3cccc(Cl)c3)=NO2)CN1C(=O)[C@@H](NC(=O)Nc1ccccc1)C(C)(C)C)C(=O)C(=O)NC1CC1` [Compound 558], for which the Ki lay in the range of 0.1 to 0.5 µM.
Turning to `CCC[C@H](NC(=O)[C@@H]1C[C@]2(CC(c3ccccc3)=NO2)CN1C(=O)c1ccc[nH]1)C(=O)C(=O)NC1CC1` [Compound 584], the Ki was > 0.5 µM.
As to `CCC[C@H](NC(=O)[C@@H]1C[C@]2(CC(c3ccccc3)=NO2)CN1C(=O)OCC1c2ccccc2-c2ccccc21)C(=O)C(=O)NC1CC1` [Compound 514], the Ki was > 0.5 µM.
In the case of `CCC[C@H](NC(=O)[C@@H]1C[C@]2(CC(c3cccc(Cl)c3)=NO2)CN1C(=O)[C@@H](NC(=O)O[C@H]1CO[C@H]2OCC[C@H]21)C(C)(C)C)C(=O)C(=O)NC1CC1` [Compound 387], the Ki lay in the range of 0.1 to 0.5 µM.
`CCC[C@H](NC(=O)[C@@H]1C[C@]2(CC(c3cccc(Cl)c3)=NO2)CN1C(=O)[C@@H](NC(=O)C(C)Cn1ccc(C)n1)C(C)(C)C)C(=O)C(=O)NC1CC1` (stereo partly drawn) [Compound 474]: the Ki is > 0.5 µM.
In the case of `CCC[C@H](NC(=O)[C@@H]1C[C@]2(CC(c3ccc(Cl)c(Cl)c3)=NO2)CN1C(=O)[C@@H](NC(=O)O[C@H]1CCOC1)C(C)(C)C)C(=O)C(=O)NC1CC1` [Compound 32] it was 0.1 to 0.5 µM; in that of `CCC[C@H](NC(=O)[C@@H]1C[C@]2(CC(c3cccc(Cl)c3)=NO2)CN1C(=O)[C@@H](NC(=O)c1cc(NC(C)=O)sc1C(C)=O)C(C)(C)C)C(=O)C(=O)NC1CC1` [Compound 161], > 0.5 µM.
In the case of `CCC[C@H](NC(=O)[C@@H]1C[C@]2(CC(c3cccc(Cl)c3)=NO2)CN1C(=O)[C@@H](NC(=O)OCC1CCCC1)C(C)(C)C)C(=O)C(=O)NC1CC1` [Compound 14], the Ki was > 0.5 µM.
In the case of `CCC[C@H](NC(=O)[C@@H]1C[C@]2(CC(c3cccc(Cl)c3)=NO2)CN1C(=O)[C@@H](NC(=O)CC1CCCCC1)C(C)(C)C)C(=O)C(=O)NC1CC1` [Compound 294] it was 0.1 to 0.5 µM.
In the case of `CCC[C@H](NC(=O)[C@@H]1C[C@]2(CC(c3cccc(C(=O)O)c3)=NO2)CN1C(=O)[C@@H](NC(=O)O[C@H]1CCOC1)C(C)(C)C)C(=O)C(=O)NC1CC1` [Compound 481] it was > 0.5 µM; in that of `CCC[C@H](NC(=O)[C@@H]1C[C@]2(CC(c3cccc(Cl)c3)=NO2)CN1C(=O)[C@@H](NC(=O)CCc1cccnc1)C(C)(C)C)C(=O)C(=O)NC1CC1` [Compound 504], 0.1 to 0.5 µM.
`CCC[C@H](NC(=O)[C@@H]1C[C@]2(CC(c3cccc(Cl)c3)=NO2)CN1C(=O)[C@@H](NC(=O)NCC)C1CCCCC1)C(=O)C(=O)NC1CC1` [Compound 103]: the Ki lay in the range of 0.1 to 0.5 µM.
Consider `CNC(=O)C(=O)C(CC1CCC1)NC(=O)[C@@H]1C[C@]2(CC(c3cccc(Cl)c3)=NO2)CN1C(=O)[C@@H](NC(=O)CC1CCCCC1)C(C)(C)C` (stereo partly drawn) [Compound 231], for which the Ki is 0.1 to 0.5 µM.
As for `CCC[C@H](NC(=O)[C@@H]1C[C@]2(CC(c3ccc(OC)cc3OC)=NO2)CN1C(=O)[C@@H](NC(=O)O[C@H]1CCOC1)C(C)(C)C)C(=O)C(=O)NC1CC1` [Compound 516], the figure is > 0.5 µM; as for `CCC[C@H](NC(=O)[C@@H]1C[C@]2(CC(c3cccc(Cl)c3)=NO2)CN1C(=O)[C@@H](NC(=O)CC1CCOCC1)C1CCCCC1)C(=O)C(=O)NC1CC1` [Compound 37], > 0.5 µM.
In the case of `CCC[C@H](NC(=O)[C@@H]1C[C@]2(CC(c3cccc(Cl)c3)=NO2)CN1C(=O)[C@@H](NC(=O)OCc1cccnc1C)C(C)(C)C)C(=O)C(=O)NC1CC1` [Compound 167] it was 0.1 to 0.5 µM; in that of `CCC[C@H](NC(=O)[C@@H]1C[C@]2(CC(c3ccc(F)cc3)=NO2)CN1C(=O)OCC1c2ccccc2-c2ccccc21)C(=O)C(=O)NC1CC1` [Compound 533], > 0.5 µM.
With `CCC[C@H](NC(=O)[C@@H]1C[C@]2(CC(c3cccc(OC(F)(F)F)c3)=NO2)CN1C(=O)[C@@H](NC(=O)O[C@H]1CCOC1)C(C)(C)C)C(=O)C(=O)NC1CC1` [Compound 244], the Ki was 0.1 to 0.5 µM.
Consider `CCC[C@H](NC(=O)[C@@H]1C[C@]2(CC(c3ccccc3Oc3ccc(OC)cc3)=NO2)CN1C(=O)[C@@H](NC(=O)OCc1ccccc1)C(C)(C)C)C(=O)C(=O)NC1CC1` [Compound 278], for which the Ki was > 0.5 µM.
Consider `CCC[C@H](NC(=O)[C@@H]1C[C@]2(CC(c3cccc(Cl)c3)=NO2)CN1C(=O)[C@@H](NC(=O)OCCc1cccs1)C(C)(C)C)C(=O)C(=O)NC1CC1` [Compound 582], for which the Ki was 0.1 to 0.5 µM.
`CCC[C@H](NC(=O)[C@@H]1C[C@]2(CC(c3cccc(Cl)c3)=NO2)CN1C(=O)CNC(=O)OCC)C(=O)C(=O)NC1CC1` [Compound 207]: the Ki is > 0.5 µM.
For `CCC[C@H](NC(=O)[C@@H]1C[C@]2(CC(c3cccc(Cl)c3)=NO2)CN1C(=O)[C@@H](NC(=O)OCc1cccnc1)C(C)(C)C)C(=O)C(=O)NC1CC1` [Compound 563], the Ki lay within 0.1 to 0.5 µM.
As for `CCC[C@H](NC(=O)[C@@H]1C[C@]2(CC(c3ccc(Cl)cc3)=NO2)CN1C(=O)[C@@H](NC(=O)CC1CCOCC1)C(C)(C)C)C(=O)C(=O)NC1CC1` [Compound 299], the Ki was > 0.5 µM.
As for `CCC[C@H](NC(=O)[C@@H]1C[C@]2(CC(c3ccc(Cl)s3)=NO2)CN1C(=O)[C@@H](NC(=O)CC1CCCCC1)C(C)(C)C)C(=O)C(=O)NC1CC1` [Compound 478], the figure is 0.1 to 0.5 µM.
As for `CCC[C@H](NC(=O)[C@@H]1C[C@]2(CC(c3cccnc3)=NO2)CN1C(=O)[C@@H](NC(=O)CC1CCCCC1)C(C)(C)C)C(=O)C(=O)NC1CC1` [Compound 303], the Ki is > 0.5 µM.
On to `CCC[C@H](NC(=O)[C@@H]1C[C@]2(CC(C(=O)NCc3ccccc3)=NO2)CN1C(=O)[C@@H](NC(=O)O[C@H]1CCOC1)C(C)(C)C)C(=O)C(=O)NC1CC1` [Compound 341], for which the Ki is > 0.5 µM.
For the compound `C=C[C@@H]1C[C@]1(NC(=O)[C@@H]1C[C@]2(CC(c3cccc(Cl)c3)=NO2)CN1C(=O)[C@@H](NC(=O)CC1CCOCC1)C(C)(C)C)C(=O)NS(=O)(=O)C1CC1` [Compound 359], the Ki lay within 0.1 to 0.5 µM.
In the case of `CCC[C@H](NC(=O)[C@@H]1C[C@]2(CC(c3cc(F)cc(Cl)c3)=NO2)CN1C(=O)[C@@H](NC(=O)CC1CCCCC1)C(C)(C)C)C(=O)C(=O)NC1CC1` [Compound 95] it was 0.1 to 0.5 µM; in that of `CCC[C@H](NC(=O)[C@@H]1C[C@]2(CC(c3cccc(Cl)c3)=NO2)CN1C(=O)[C@@H](NC(=O)OCc1ccncc1)C(C)(C)C)C(=O)C(=O)NC1CC1` [Compound 357], 0.1 to 0.5 µM.
For `CCC[C@H](NC(=O)[C@@H]1C[C@]2(CC(c3ccc(OC)c(Cl)c3)=NO2)CN1C(=O)[C@@H](NC(=O)O[C@H]1CCOC1)C(C)(C)C)C(=O)C(=O)NC1CC1` [Compound 15], the Ki is 0.1 to 0.5 µM.
Turning to `CCC[C@H](NC(=O)[C@@H]1C[C@]2(CC(c3cccc(Cl)c3)=NO2)CN1C(=O)[C@@H](NC(=O)Cc1cccc(OC(F)(F)F)c1)C(C)(C)C)C(=O)C(=O)NC1CC1` [Compound 585], the Ki lay within 0.1 to 0.5 µM.
For the compound `CCC[C@H](NC(=O)[C@@H]1C[C@]2(CC(c3cccc(Cl)c3)=NO2)CN1C(=O)[C@@H](NC(=O)OCc1ccc(C)cc1)C(C)(C)C)C(=O)C(=O)NC1CC1` [Compound 471], the Ki lay in the range of 0.1 to 0.5 µM.
As for `CCC[C@H](NC(=O)[C@@H]1C[C@]2(CC(c3cccc(Cl)c3)=NO2)CN1C(=O)[C@@H](NC(=O)C1CC(=O)N(Cc2cccs2)C1)C(C)(C)C)C(=O)C(=O)NC1CC1` (stereo partly drawn) [Compound 216], the Ki was > 0.5 µM.
`CCC[C@H](NC(=O)[C@@H]1C[C@@]2(CC(c3cc(F)cc(C(F)(F)F)c3)=NO2)CN1C(=O)[C@@H](NC(=O)O[C@H]1CCOC1)C(C)(C)C)C(=O)C(=O)NC1CC1` [Compound 258]: the Ki is > 0.5 µM.
In the case of `CCC[C@H](NC(=O)[C@@H]1C[C@]2(CC(c3cccc(Cl)c3)=NO2)CN1C(=O)[C@@H](NC(=O)CC1CCCCC1)C(C)(C)C)C(=O)C(=O)Nc1cccc(C(C)=O)c1` [Compound 355], the Ki is > 0.5 µM.
In the case of `CCC[C@H](NC(=O)[C@@H]1C[C@]2(CC(c3cccc(Cl)c3)=NO2)CN1C(=O)[C@@H](NC(=O)C(C)Cn1cnc2ccccc21)C(C)(C)C)C(=O)C(=O)NC1CC1` (stereo partly drawn) [Compound 544] it was 0.1 to 0.5 µM; in that of `CCC[C@H](NC(=O)[C@@H]1C[C@]2(CC(c3cccc(Cl)c3)=NO2)CN1C(=O)[C@@H](NC(=O)CC1=C(c2cccs2)CCC1=O)C(C)(C)C)C(=O)C(=O)NC1CC1` [Compound 402], 0.1 to 0.5 µM.
As for `CCC[C@H](NC(=O)[C@@H]1C[C@]2(CC(c3cccc(Cl)c3)=NO2)CN1C(=O)[C@@H](NC(=O)Cc1ccccc1C)C(C)(C)C)C(=O)C(=O)NC1CC1` [Compound 431], the figure is 0.1 to 0.5 µM; as for `CCC[C@H](NC(=O)[C@@H]1C[C@]2(CC(c3cccc(C(F)(F)F)c3)=NO2)CN1C(=O)[C@@H](NC(=O)O[C@H]1CCOC1)C(C)(C)C)C(=O)C(=O)NC1CC1` [Compound 560], 0.1 to 0.5 µM.
As for `CCC[C@H](NC(=O)[C@@H]1C[C@]2(CC(c3ccc4c(c3)OCO4)=NO2)CN1C(=O)[C@@H](NC(=O)CC1CCOCC1)C(C)(C)C)C(=O)C(=O)NC1CC1` [Compound 82], the Ki was 0.1 to 0.5 µM.
